20 molecules from the SangsterLogP compilation can be followed below.

SMILES strings stand for the structures.

This data set can be described thus: method code SF-AS, from DOI: 10.1016/0165-022x(96)00008-5, PMID: 8844325.
Take `CC(C)(C)[N+]([O-])=Cc1ccccc1O`: the logP (usually a log measure of how a compound divides between an organic and an aqueous phase) was found to be 1.31.
The result for `CC(C)(C)[N+]([O-])=Cc1ccc([N+](=O)[O-])cc1` reads 1.39; that for `CC(C)(C)[N+]([O-])=Cc1ccc(Br)cc1`, 1.98.
The molecule `CC(C)(C)[N+]([O-])=Cc1ccc(O)cc1` had a logP of 0.58.
In turn, `CC(C)(C)[N+]([O-])=Cc1cccc([N+](=O)[O-])c1` yielded a logP of 1.3.
Molecule `CC(C)(C)[N+]([O-])=Cc1ccc(Cl)cc1` yielded a logP of 2.39.
The result for `CC(C)(C)[N+]([O-])=Cc1ccc(C(=O)O)cc1` reads 1.05; that for `Cc1cccc(C=[N+]([O-])C(C)(C)C)c1`, 1.58; that for `CC1(C)CCC(c2ccccc2)=[N+]1[O-]`, 1.03.
Molecule `CC(C)(C)[N+]([O-])=Cc1cccc(O)c1` came in with a logP of 1.
The molecule `CC(C)(C)[N+]([O-])=Cc1cc[n+]([O-])cc1` had a lipophilicity (logP) of -0.82.
For the molecule `COc1cccc(C=[N+]([O-])C(C)(C)C)c1`, the logP turned out to be 1.41.
The result for `COc1cc(OC)c(C=[N+]([O-])C(C)(C)C)c(OC)c1` reads 1.19.
The result for `Cc1ccccc1C=[N+]([O-])C(C)(C)C` reads 1.53; that for `CC(C)(C)[N+]([O-])=Cc1ccc(C#N)cc1`, 0.52; that for `CC1(C)C=[N+]([O-])C(C)(C)C1`, -0.15.
Molecule `CC(C)(C)[N+]([O-])=Cc1ccccc1[N+](=O)[O-]` showed a logP of 0.84.
As to `CC(C)(C)[N+]([O-])=Cc1ccncc1`, the logP was 0.4.
On to `CC1(C)CCC(C(F)(F)F)=[N+]1[O-]`, for which the logP stood at 0.2.
Under `CC(C)(C)[N+]([O-])=Cc1ccccc1Br` stands 2.52.
